Laboratory results reported in the OligoGym collection.
After the bases stand the sugars from the 5' end (letter, count) and the backbone: PS all phosphorothioate, else s phosphorothioate and o phosphodiester by linkage. Methylation of C is not given here. e = 2'-O-(2-methoxyethyl) (MOE); k = constrained ethyl (cEt); d = 2'-deoxy (DNA); m = 2'-O-methyl

Biological target: HSD17B13
Conditions: ASO, HepaRG

| Sequence | target mRNA inhibition (1 µM) | also measured |
| --- | --- | --- |
| AAAAAAGCTTATCGAG (sugars k3 d10 k3, PS) | 7% | – |
| AAAAAATTGGTTTCGA (sugars k3 d10 k3, PS) | 20% | – |
| AAAAATTGGTTTCGAA (sugars k3 d10 k3, PS) | 13% | – |
| AAAAGACTTTGAGACT (sugars k3 d10 k3, PS) | 32% | – |
| AAAATGGTGGCGAGGC (sugars k3 d10 k3, PS) | 0% | – |
| AAACAAGAGGATAGTC (sugars k3 d10 k3, PS) | 48% | – |
| AAACAAGAGGATAGTC (sugars kkdddddddddkekek, PS) | 52% | – |
| AAACATAGGCTTAGTG (sugars k3 d10 k3, PS) | 16% | – |
| AAACATCTCTGGGACC (sugars k3 d1 m1 d8 k3, PS) | 66% | – |
| AAACATCTCTGGGACC (sugars k3 d9 k3 e1, PS) | 48% | – |
| AAACATCTCTGGGACC (sugars kkdddddddddkekek, PS) | 36% | – |
| AAACCTTCCCTGTGTA (sugars k3 d10 k3, PS) | 34% | – |
| AAACTAGGAAGTGATC (sugars k3 d10 k3, PS) | 39% | – |
| AAACTTGATCTCTTAG (sugars k3 d10 k3, PS) | 61% | – |
| AAAGACTTTGAGACTC (sugars k3 d10 k3, PS) | 68% | target mRNA inhibition (0.02 µM): 0%; target mRNA inhibition (0.078 µM): 18%; target mRNA inhibition (0.313 µM): 40%; target mRNA inhibition (1.25 µM): 65%; target mRNA inhibition (5 µM): 87% |
| AAAGTGTCCTCGATCC (sugars k3 d10 k3, PS) | 36% | – |
| AAAGTTCATTCGAATT (sugars k3 d10 k3, PS) | 63% | – |
| AAAGTTTGTTAGAGTG (sugars k3 d10 k3, PS) | 75% | target mRNA inhibition (0.02 µM): 0%; target mRNA inhibition (0.078 µM): 6%; target mRNA inhibition (0.313 µM): 0%; target mRNA inhibition (1.25 µM): 55%; target mRNA inhibition (5 µM): 78% |
| AAATAGAGTCGGTCAC (sugars k3 d1 m1 d8 k3, PS) | 63% | – |
| AAATATGTCCAGGTTG (sugars k3 d1 m1 d8 k3, PS) | 63% | – |
| AAATGAGGCGGCACTC (sugars k3 d10 k3, PS) | 20% | – |
| AAATGTCCTAGGATGT (sugars k3 d10 k3, PS) | 36% | – |
| AACAGTTTAGATTGCA (sugars k3 d10 k3, PS) | 71% | – |
| AACATAGGCTTAGTGT (sugars k3 d10 k3, PS) | 18% | – |

| Sequence | target mRNA inhibition (1 µM) | also measured |
| --- | --- | --- |
| AACATCTCTGGGACCA (sugars kkdddddddddkekek, PS) | 36% | – |
| AACAUCTCTGGGACCA (sugars k3 d1 m1 d8 k3, PS) | 64% | – |
| AACCAATCCTCAGCTT (sugars k3 d10 k3, PS) | 0% | – |
| AACCATAGGACATGGA (sugars k3 d10 k3, PS) | 71% | – |
| AACCTAATAACTACAT (sugars k3 d10 k3, PS) | 0% | – |
| AACCTTCCCTGTGTAA (sugars k3 d10 k3, PS) | 38% | – |
| AACTAGGAAGTGATCC (sugars k3 d10 k3, PS) | 58% | – |
| AACTCCGTTATAAGTT (sugars k3 d10 k3, PS) | 11% | – |
| AACTTGATCTCTTAGC (sugars k3 d10 k3, PS) | 64% | – |
| AAGACAGACCAAGTAG (sugars k3 d10 k3, PS) | 16% | – |
| AAGACTTTGAGACTCT (sugars k3 d10 k3, PS) | 62% | – |
| AAGAGCTGGTAAAGGT (sugars k3 d10 k3, PS) | 47% | – |
| AAGAGGATAGTCCATG (sugars k3 d10 k3, PS) | 65% | – |
| AAGAGTCAGTATCCTC (sugars kkdddddddddkekek, PS) | 14% | – |
| AAGATACCCAGGTTGC (sugars k3 d10 k3, PS) | 59% | – |
| AAGATTAGTTAACCTT (sugars k3 d10 k3, PS) | 24% | – |
| AAGCATTGTTAGCTAA (sugars k3 d10 k3, PS) | 11% | – |
| AAGGACTTTCATAGGG (sugars k3 d10 k3, PS) | 71% | – |
| AAGGATTTCTAGGATG (sugars k3 d10 k3, PS) | 71% | – |
| AAGGCTTATGAAGTTA (sugars k3 d10 k3, PS) | 61% | – |
| AAGTTAATAGGACTAA (sugars k3 d10 k3, PS) | 17% | – |
| AAGTTTTTAAGAGGCA (sugars k3 d10 k3, PS) | 77% | target mRNA inhibition (0.02 µM): 0%; target mRNA inhibition (0.078 µM): 0%; target mRNA inhibition (0.313 µM): 43%; target mRNA inhibition (1.25 µM): 73%; target mRNA inhibition (5 µM): 96% |
| AATAAAGCTTTGCAGC (sugars k3 d10 k3, PS) | 26% | – |
| AATAATAGCTCTATTG (sugars kkdddddddddkekek, PS) | 2% | – |

| Sequence | target mRNA inhibition (1 µM) | also measured |
| --- | --- | --- |
| AATACATATCTTACTC (sugars k3 d10 k3, PS) | 37% | – |
| AATACGCTGAGAGTTA (sugars k3 d10 k3, PS) | 48% | – |
| AATACTAATGTCCAAG (sugars k3 d10 k3, PS) | 65% | – |
| AATAGAGTCGGTCACC (sugars k3 d1 m1 d8 k3, PS) | 57% | – |
| AATAGAGTCGGTCACC (sugars kkdddddddddkekek, PS) | 13% | – |
| AATAGCAAGCCAACAG (sugars k3 d10 k3, PS) | 9% | – |
| AATAGCCATGTAGCTA (sugars k3 d10 k3, PS) | 28% | – |
| AATATCAGCCATCTAG (sugars k3 d10 k3, PS) | 24% | – |
| AATATGGGATGAGGTA (sugars k3 d9 k3 e1, PS) | 47% | – |
| AATATTGAGGCACTGG (sugars k3 d10 k3, PS) | 54% | – |
| AATCAATCTGTCTGAA (sugars k3 d10 k3, PS) | 34% | – |
| AATCACAAGTAAGGTA (sugars kkdddddddddkekek, PS) | 59% | – |
| AATCAGTTTTCCTCAT (sugars k3 d10 k3, PS) | 53% | – |
| AATCCCAACCAAACTT (sugars k3 d1 m1 d8 k3, PS) | 7% | – |
| AATCCCAACCAAACTT (sugars k3 d10 k3, PS) | 23% | – |
| AATCCTATGCAAATTC (sugars k3 d10 k3, PS) | 42% | – |
| AATCGCTGCTTAGTTC (sugars k3 d10 k3, PS) | 41% | – |
| AATCTAGCAACCTCTA (sugars k3 d10 k3, PS) | 22% | – |
| AATGCTACTTGAACAG (sugars kkdddddddddkekek, PS) | 39% | – |
| AATGTATGAGGTCTCC (sugars k3 d10 k3, PS) | 65% | – |
| AATGTCCTAGGATGTT (sugars k3 d10 k3, PS) | 70% | – |
| AATTACTCCGTTCTGC (sugars k3 d10 k3, PS) | 6% | – |
| AATTCACCTTGACTAA (sugars k3 d9 k3 e1, PS) | 16% | – |
| AATTGATACACCAATG (sugars kkdddddddddkekek, PS) | 50% | – |

| Sequence | target mRNA inhibition (1 µM) | also measured |
| --- | --- | --- |
| AATTTATTGGTATGGT (sugars k3 d10 k3, PS) | 30% | – |
| AATTTGTGAACCTGCA (sugars k3 d10 k3, PS) | 20% | – |
| ACAACTGGAGGTATGT (sugars k3 d10 k3, PS) | 0% | – |
| ACAAGATTAGTCTTGA (sugars k3 d10 k3, PS) | 45% | – |
| ACAATATGGGATGAGG (sugars k3 d9 k3 e1, PS) | 76% | target mRNA inhibition (0.02 µM): 0%; target mRNA inhibition (0.078 µM): 0%; target mRNA inhibition (0.313 µM): 0%; target mRNA inhibition (1.25 µM): 39%; target mRNA inhibition (5 µM): 55% |
| ACAATCTAGCAACCTC (sugars k3 d10 k3, PS) | 44% | – |
| ACAATCTCCCCAGCCA (sugars k3 d10 k3, PS) | 67% | – |
| ACACTAATTTAGTCAA (sugars k3 d10 k3, PS) | 16% | – |
| ACACUAATATTGAGGC (sugars k3 d1 m1 d8 k3, PS) | 43% | – |
| ACAGAGGAGTTTGCAG (sugars k3 d10 k3, PS) | 37% | – |
| ACAGATTGGAATGCTA (sugars k3 d10 k3, PS) | 50% | – |
| ACAGTAAAATTATGCC (sugars k3 d9 k3 e1, PS) | 62% | – |
| ACAGTCTTAAACCTTC (sugars k3 d9 k3 e1, PS) | 73% | target mRNA inhibition (0.02 µM): 13%; target mRNA inhibition (0.078 µM): 31%; target mRNA inhibition (0.313 µM): 52%; target mRNA inhibition (1.25 µM): 71%; target mRNA inhibition (5 µM): 80% |
| ACAGTCTTAAACCTTC (sugars k3 d10 k3, PS) | 76% | target mRNA inhibition (0.02 µM): 5%; target mRNA inhibition (0.078 µM): 16%; target mRNA inhibition (0.313 µM): 52%; target mRNA inhibition (1.25 µM): 75%; target mRNA inhibition (5 µM): 80% |
| ACAGTCTTAAACCTTC (sugars kkdddddddddkekek, PS) | 46% | – |
| ACAGUCTTAAACCTTC (sugars k3 d1 m1 d8 k3, PS) | 81% | target mRNA inhibition (0.02 µM): 19%; target mRNA inhibition (0.078 µM): 35%; target mRNA inhibition (0.313 µM): 41%; target mRNA inhibition (1.25 µM): 67%; target mRNA inhibition (5 µM): 85% |
| ACATAACTACTTCAGT (sugars k3 d10 k3, PS) | 28% | – |
| ACATAGCTAACTCAGG (sugars k3 d10 k3, PS) | 38% | – |
| ACATATACAGACTAAG (sugars k3 d10 k3, PS) | 46% | – |
| ACATATGGTGTACACT (sugars k3 d10 k3, PS) | 19% | – |
| ACATCTCTGGGACCAA (sugars kkdddddddddkekek, PS) | 67% | – |
| ACATTCTTCAGGTGTT (sugars k3 d10 k3, PS) | 88% | target mRNA inhibition (0.02 µM): 0%; target mRNA inhibition (0.078 µM): 20%; target mRNA inhibition (0.313 µM): 48%; target mRNA inhibition (1.25 µM): 80%; target mRNA inhibition (5 µM): 90% |
| ACATTGCAGTTATTAG (sugars k3 d10 k3, PS) | 42% | – |
| ACATUAGCAAGCTAAG (sugars k3 d1 m1 d8 k3, PS) | 23% | – |
